Assay results reported in PMC3266270, “Biochemical Discrimination between Selenium and Sulfur 1: A Single Residue Provides Selenium Specificity to Human Selenocysteine Lyase” (PLoS ONE, 2012).

Legend:
[1] = target: T1, hSCL (human selenocysteine lyase) (Homo sapiens, UniProt Q96I15); assay: alanine dehydrogenase-coupled detection of product alanine; assay type: biochemical; details: 5 mM seleno-L-cystine reduced in situ by 50 mM DTT (10 mM Sec equivalent), 0.2 mM PLP, pH 8.5, 37 °C, under nitrogen; time course only
T1 construct: gene SCLY; residues 8-445, N-terminal His6-TEV tag cleaved before assay and crystallization; E. coli BL21(DE3); homodimer
T1 sequence (Q96I15 8-445): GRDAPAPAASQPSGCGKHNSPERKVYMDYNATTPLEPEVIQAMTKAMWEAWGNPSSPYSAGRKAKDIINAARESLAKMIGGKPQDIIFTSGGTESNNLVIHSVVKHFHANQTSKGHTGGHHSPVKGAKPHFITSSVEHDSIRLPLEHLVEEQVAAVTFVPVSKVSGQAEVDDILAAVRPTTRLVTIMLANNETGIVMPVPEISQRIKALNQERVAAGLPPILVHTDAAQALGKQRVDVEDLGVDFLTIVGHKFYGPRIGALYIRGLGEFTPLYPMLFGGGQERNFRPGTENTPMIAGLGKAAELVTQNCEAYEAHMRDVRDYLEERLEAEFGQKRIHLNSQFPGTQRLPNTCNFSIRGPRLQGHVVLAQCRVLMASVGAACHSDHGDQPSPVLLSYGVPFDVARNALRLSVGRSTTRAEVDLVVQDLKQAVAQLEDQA

[2] = target: T1, hSCL (human selenocysteine lyase); assay: X-ray crystal structure; assay type: binding; details: P2_12_12_1 crystal, 2.1 Å; pH 6.7; copurified cofactor; active site at homodimer interface
[3] = target: the molecule itself; assay: crystal structure; hSCL with PLP, His-tag cleaved; two crystal forms: P2(1)2(1)2(1), 2.1 A, 100 mM HEPES pH 6.7, 10% PEG6000, one dimer per asymmetric unit; P1, 1.8 A, 50 mM HEPES pH 8.1, 200 mM ammonium nitrate, 25% PEG3350, soaked with 10 mM L-cysteine for 2 h, two dimers per asymmetric unit; crystals grown at 20 C

Molecule: N[C@@H](C[SeH])C(=O)O [Sec]
- alanine dehydrogenase-coupled detection of product alanine [1]: The activity with Sec observed in the wild-type enzyme was not altered

Molecule: Cc1ncc(COP(=O)(O)O)c(C=O)c1O [PLP]
- X-ray crystal structure [2]: Human SCL homodimer in complex with the co-factor PLP.

B1: human selenocysteine lyase (hSCL), residues 8-445 (enzyme, UniProt Q96I15 8-445, looked up)
chain: GRDAPAPAASQPSGCGKHNSPERKVYMDYNATTPLEPEVIQAMTKAMWEAWGNPSSPYSAGRKAKDIINAARESLAKMIGGKPQDIIFTSGGTESNNLVIHSVVKHFHANQTSKGHTGGHHSPVKGAKPHFITSSVEHDSIRLPLEHLVEEQVAAVTFVPVSKVSGQAEVDDILAAVRPTTRLVTIMLANNETGIVMPVPEISQRIKALNQERVAAGLPPILVHTDAAQALGKQRVDVEDLGVDFLTIVGHKFYGPRIGALYIRGLGEFTPLYPMLFGGGQERNFRPGTENTPMIAGLGKAAELVTQNCEAYEAHMRDVRDYLEERLEAEFGQKRIHLNSQFPGTQRLPNTCNFSIRGPRLQGHVVLAQCRVLMASVGAACHSDHGDQPSPVLLSYGVPFDVARNALRLSVGRSTTRAEVDLVVQDLKQAVAQLEDQA
notes: human selenocysteine lyase (hSCL), residues 8-445, cDNA clone from the Mammalian Gene Collection (GenBank BC007891.2), cloned in pNIC-Bsa4; residues 120-132 are disordered; A few vector residues probably remain at the N-terminus after TEV cleavage (surmised; also called human SCL; Sec lyase; source: His-tag removed with TEV protease); not shown: His6, N-terminal, cleaved
- stoichiometry N [3]: 2
